These results are taken from patent US7439415B2, “Population of Hoxb8 mutants and uses in identifying agents for treating repetitive behaviors” (priority 2001, dated 2008).

The subject of the assay is Hoxb8 mutant animals. Description: Fluoxetine treatment of Hoxb8 mutant mice with excessive grooming (induced grooming assay / hair regrowth). The note with it: 10 mg/kg/day via Alzet mini-osmotic pumps, thirty days of treatment. Format: in vivo, mouse.

Where a name gives a salt, the structure may show the parent alone.

Regarding `CNCCC(Oc1ccc(C(F)(F)F)cc1)c1ccccc1` (stereo not shown) [Flu, Fluoxetine-HCl], the “hair regrowth / efficacy against excessive grooming behavior” value was “exhibited signs of hair regrowth”.
